The values that follow come from paper PMC11003481, “Synthesis, biological evaluation, and computational studies of N-benzyl pyridinium–curcumin derivatives as potent AChE inhibitors with antioxidant activity” (Journal of Enzyme Inhibition and Medicinal Chemistry, 2023).

The IC50 is the concentration that gives 50% inhibition. The Ki is the equilibrium dissociation constant of an inhibitor or competing ligand from its target.

In assay [1] the target is acetylcholinesterase (eeAChE, from Electrophorus electricus) (Electrophorus electricus, UniProt O42275). Description: biochemical. To be noted: for Selectivity Index (SI) (AChE): Selectivity ratio [IC50(BChE)/IC50(AChE)]; for IC50: eeAChE, mean ± SEM of three independent experiments, duplicate samples, read-out: IC50 ± SEM AChE. How it is done: (§1) The AChE and BChE inhibitory activity assays were performed using a BioTek Epoch 2 microplate spectrophotometer in clear, flat-bottom 96-well plates. […] To each well, 295 µL phosphate buffer pH 8.0, 10 µL enzyme solution (AChE/BChE), and 10 µL target compound solutions were added together and allowed to stand for 4 min at room temperature. Then, 10 µL of 0.01 M solution freshly prepared Ellman’s reagent 5,5′-dithiobis(2-nitrobenzoic acid) (DTNB) was added to each well. The reaction in the wells was started by the addition of 2 µL of 0.075 M solution freshly prepared substrate (ATCh (acetylthiocholine iodide)/BTCh (S-butyrylthiocholine iodide)) solution. The solution was mixed immediately and incubated for 2:30 min for AChE or for 5 min for BChE inside the microplate reader at 26 °C. […] The IC50 values were calculated graphically by nonlinear regression analysis of inhibition curves that were obtained by plotting the logarithm of the inhibitor concentrations versus the percentage of inhibition (log(inhibitor) vs. normalised response) using GraphPad Prism 8 software (See Supplementary Information for details).

For assay [2], the target named is T1, butyrylcholinesterase (eqBChE, from equine serum) (Equus caballus, UniProt P81908).
T1 construct: butyrylcholinesterase (eqBChE, from equine serum); from tissue; host or cells: equine serum
Description: biochemical. To be noted: mean ± SEM of three independent experiments, duplicate samples, read-out: IC50 ± SEM BChE. The protocol: as §1

The next assay deals with eeAChE (Electrophorus electricus, UniProt O42275). Briefly: biochemical. The format is biochemical. As to conditions: for Ki: from slopes of Lineweaver-Burk plots versus inhibitor concentration, substrate ATCh, read-out: Ki ± SEM eeAChE. How it is done: The slopes of the Lineweaver-Burk reciprocal plots against the concentrations of the compound (inhibitor) were plotted to obtain the Ki values for the prepared compounds (Table 1). The value at which the line intersects the x-axis is -Ki.
The assay was performed in triplicate using different inhibitor concentrations. […] The assay was carried out in clear, flat-bottom 96-well plates, to which 5 µL distilled water was added to all wells of columns 2–3, rows B-F. Then, 5 µL of the lowest concentration of inhibitor solution was added to the wells of columns 4–5, 5 µL of the median concentration of inhibitor solution was added to the wells of columns 6–7, and 5 µL of the highest concentration of inhibitor solution was added to the wells of columns 8–9. Next, 275 μL enzyme solution was added to the wells, and the plates were incubated for 4 min. Then, 10 μL 2.5 mM DTNB was added to the wells, followed by 10 μL of 32, 16, 8, 4, or 2 mM ATCh solutions to initiate the reactions. The plates were placed in a microplate reader for direct kinetic measurements.
The inhibition constant (Ki) for each inhibitor was calculated by averaging the ATCh hydrolysis rates from three independent experiments. Using GraphPad Prism 8 software, nonlinear regression was used to calculate the Km and Vmax values of the Michaelis-Menten kinetics by plotting [substrate] versus velocity. For the Lineweaver-Burk plots, linear regression was used to plot [1/ATCh] versus […]. Finally, the Ki values were obtained by plotting the slopes against [inhibitor] [20].

Assay [3] can be described thus: ABTS radical cation decolorisation antioxidant assay. How it is done: The antioxidant activity was determined using a radical cation (ABTS^.+) decolorisation assay, as described by Xiao et al.[21] with a few modifications. The assay used a BioTek Epoch 2 microplate spectrophotometer (Agilent, USA) with clear, flat-bottom 96-well plates. The 7 mmol/L ABTS^.+ stock solution was prepared by dissolving 96.02 mg ABTS in acetic acid buffer (pH 4.5) and to a final volume of 25 ml, which was kept in the dark at 0–4 °C. A 2.45 mmol/L potassium persulfate (K2S2O8) stock solution was prepared by dissolving 66.24 mg K2S2O8 in acetic acid buffer solution with pH 4.5, and then diluted to 100 ml and kept in the dark at 0–4 °C. The ABTS working solution was prepared by mixing similar quantities of 7 mmol/L ABTS and 2.45 mmol/L K2S2O8. This solution was stored in a dark cabinet for 16 h before use, when it was diluted with distilled water to obtain an absorbance of 0.70 at 734 nm. In a clear, flat-bottom 96-well plate, 200 μL of ABTS working solution and 10.0 μL sample solution at different concentrations (0.0312–0.5 mg/mL) were mixed well and incubated in the dark for 7 min before the absorbance was measured at 734 nm using a microplate reader. A blank was run for each assay, and all measurements were performed after 7 min. The ABTS scavenging capacity of inhibitors was compared with that of trolox and α-tocopherol. […]

T1 sequence (P81908 whole entry): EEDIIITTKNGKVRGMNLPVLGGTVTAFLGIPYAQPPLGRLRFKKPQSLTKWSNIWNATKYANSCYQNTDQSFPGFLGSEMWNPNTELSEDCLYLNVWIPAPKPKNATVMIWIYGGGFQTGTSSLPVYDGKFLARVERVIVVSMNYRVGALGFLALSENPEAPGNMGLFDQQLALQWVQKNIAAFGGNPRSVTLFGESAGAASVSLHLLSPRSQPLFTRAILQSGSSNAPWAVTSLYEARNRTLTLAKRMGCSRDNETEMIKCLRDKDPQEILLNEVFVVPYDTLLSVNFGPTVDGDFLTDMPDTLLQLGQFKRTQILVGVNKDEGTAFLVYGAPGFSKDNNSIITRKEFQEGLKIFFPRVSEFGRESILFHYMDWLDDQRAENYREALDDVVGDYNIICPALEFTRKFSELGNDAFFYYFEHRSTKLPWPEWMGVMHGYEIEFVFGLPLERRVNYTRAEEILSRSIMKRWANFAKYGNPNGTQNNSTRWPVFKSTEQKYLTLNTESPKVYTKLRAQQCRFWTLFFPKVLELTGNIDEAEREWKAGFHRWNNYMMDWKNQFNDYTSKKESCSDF
Chain of eeAChE (O42275 24-633): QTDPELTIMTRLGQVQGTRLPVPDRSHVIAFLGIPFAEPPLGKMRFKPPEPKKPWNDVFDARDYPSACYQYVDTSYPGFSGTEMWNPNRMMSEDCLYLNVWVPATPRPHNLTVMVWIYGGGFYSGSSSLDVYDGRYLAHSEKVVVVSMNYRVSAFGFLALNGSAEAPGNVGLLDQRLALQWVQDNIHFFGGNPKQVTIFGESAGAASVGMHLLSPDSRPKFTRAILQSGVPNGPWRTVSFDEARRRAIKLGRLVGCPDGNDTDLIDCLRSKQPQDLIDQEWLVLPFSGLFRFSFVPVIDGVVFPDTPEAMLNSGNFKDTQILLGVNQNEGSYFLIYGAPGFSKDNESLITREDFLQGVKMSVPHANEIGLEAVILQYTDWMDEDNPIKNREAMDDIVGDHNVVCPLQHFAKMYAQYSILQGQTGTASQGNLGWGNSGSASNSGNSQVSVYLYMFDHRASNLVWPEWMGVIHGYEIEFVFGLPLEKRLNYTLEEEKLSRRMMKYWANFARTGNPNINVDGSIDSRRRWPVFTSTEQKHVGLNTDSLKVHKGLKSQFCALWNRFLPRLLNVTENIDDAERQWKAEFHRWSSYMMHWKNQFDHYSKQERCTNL
Chain of acetylcholinesterase (eeAChE, from Electrophorus electricus) (O42275 24-633): as above

Take `O=C(/C=C/c1ccccc1)/C=C/c1cc[n+](Cc2ccc(F)cc2)cc1` [Compound 7b]: the “Selectivity Index (SI) (AChE)” value in assay [1] worked out at 21. In addition, the 50% inhibitory concentration (IC50) in assay [1] came to 52 ± 0.18 nM; in assay [2] it was 1070 ± 80 nM. Moreover, the inhibitory constant (Ki) on eeAChE turned out to be 56 ± 0.016 nM. In addition, the “ABTS Inhibition %” value in assay [3] (0.0312 mg/mL) was 0.5 ± 0.47%; in assay [3] (0.0625 mg/mL) it was 1.4 ± 0.07%; in assay [3] (0.125 mg/mL) it was 3.3 ± 0.10%; in assay [3] (0.25 mg/mL) it was 6.2 ± 0.50%; in assay [3] (0.5 mg/mL), 7.1 ± 0.59%.
As for `COc1cc(/C=C/C(=O)/C=C/c2ccc[n+](Cc3ccccc3)c2)ccc1O` [Compound 8f, 1-Benzyl-3-(1E,4E)-5–(4-hydroxy-3-methoxyphenyl)-3-oxopenta-1,4-dien-1-yl)pyridin-1-ium bromide], the figures for the 50% inhibitory concentration (IC50) in assay [1] and in assay [2] were 17 ± 0.17 nM and 3500 ± 95 nM, respectively. The Ki on eeAChE came out at 16 ± 0.022 nM. Further, the “ABTS Inhibition %” value is 7.7 ± 0.97% in assay [3] (0.0312 mg/mL), 15.8 ± 0.18% in assay [3] (0.0625 mg/mL), 25.4 ± 0.57% in assay [3] (0.125 mg/mL) and 39.3 ± 0.23% in assay [3] (0.25 mg/mL).
Consider `COc1cc(/C=C/C(=O)/C=C/c2cc[n+](Cc3ccc(F)cc3)cc2)ccc1O` [7 g, 1–(4-Fluorobenzyl)-4-(1E,4E)-5–(4-hydroxy-3-methoxyphenyl)-3-oxopenta-1,4-dien-1-yl)pyridin-1-ium bromide], for which the “Selectivity Index (SI) (AChE)” value in assay [1] was 65. Moreover, the values for the IC50 in assay [1] and in assay [2] were 16 ± 0.18 nM and 1040 ± 81 nM, respectively. Further, on eeAChE, the Ki amounted to 6 ± 0.031 nM. Moreover, the “ABTS Inhibition %” value in assay [3] (0.0312 mg/mL) is listed as 6.1 ± 0.82%; in assay [3] (0.0625 mg/mL), 13.9 ± 0.68%; in assay [3] (0.125 mg/mL) it was 22.5 ± 0.77%; in assay [3] (0.25 mg/mL), 30.2 ± 1.86%; in assay [3] (0.5 mg/mL), 52.1 ± 1.58%.
Turning to `O=C(/C=C/c1ccccc1)/C=C/c1cc[n+](Cc2ccccc2)cc1` [Compound 7a, 1-Benzyl-4-(1E,4E)-3-oxo-5-phenylpenta-1,4-dien-1-yl)pyridin-1-ium bromide], the “Selectivity Index (SI) (AChE)” value in assay [1] is 19. Moreover, in assay [1], the IC50 came out at 32 ± 0.22 nM. Besides, the Ki on eeAChE is 39 ± 0.011 nM. For the same compound, the “Type of AChE inhibition (Lineweaver-Burk pattern)” value on eeAChE (slopes and intercepts increased with inhibitor concentration) is “mixed-type inhibition”. The “ABTS Inhibition %” value in assay [3] (0.0312 mg/mL) came to 1.4 ± 0.56%; in assay [3] (0.0625 mg/mL) it was 1.5 ± 0.30%; in assay [3] (0.125 mg/mL), 1.7 ± 0.68%; in assay [3] (0.25 mg/mL) it was 3.5 ± 0.72%; in assay [3] (0.5 mg/mL) it was 6.4 ± 0.47%.
With `COc1cc(/C=C/C(=O)/C=C/c2ccc[n+](Cc3ccc(F)cc3)c2)ccc1O` [8 g, 1–(4-Fluorobenzyl)-3-(1E,4E)-5–(4-hydroxy-3-methoxyphenyl)-3-oxopenta-1,4-dien-1-yl)pyridin-1-ium bromide], the “Selectivity Index (SI) (AChE)” value in assay [1] worked out at 79. Further, the IC50 in assay [1] was 16 ± 0.24 nM; in assay [2], 1200 ± 97 nM. Also, the Ki at eeAChE was 10 ± 0.025 nM. Also, the “ABTS Inhibition %” value worked out at 6.1 ± 0.71% in assay [3] (0.0312 mg/mL), 13.7 ± 0.52% in assay [3] (0.0625 mg/mL), 24.7 ± 0.51% in assay [3] (0.125 mg/mL) and 39.5 ± 0.38% in assay [3] (0.25 mg/mL).
